# Laboratory results from PMC12858634, “Functional characterisation of Target of Rapamycin (TOR) signalling in Physcomitrella” (Plant Cell Reports, 2026).
# Target: T1, PpFKBP12 (Physcomitrium patens, UniProt A0A2K1L9Z1, M56K/G57Q/R58E)
# T1 construct: gene LOC112274967
# Assay: yeast fkbp12 deletion complementation, growth spot assay
# Assay type: cell-based
# Settings: rapamycin 100 or 200 nM, galactose medium, 30 °C, 5 days; acts as FKBP12-rapamycin complex on host yeast TOR
# T1 sequence (A0A2K1L9Z1 entry or part of it M56K/G57Q/R58E): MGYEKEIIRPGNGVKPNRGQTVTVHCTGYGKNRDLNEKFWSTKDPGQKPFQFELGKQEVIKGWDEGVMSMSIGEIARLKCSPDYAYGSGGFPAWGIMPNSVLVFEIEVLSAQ
smiles,measurement,value
CO[C@H]1C[C@@H]2CC[C@@H](C)[C@@](O)(O2)C(=O)C(=O)N2CCCC[C@H]2C(=O)O[C@H]([C@H](C)C[C@@H]2CC[C@@H](O)[C@H](OC)C2)CC(=O)[C@H](C)/C=C(\C)[C@@H](O)[C@@H](OC)C(=O)[C@H](C)C[C@H](C)/C=C/C=C/C=C/1C [rapamycin],"yeast fkbp12 deletion complementation, growth spot assay",all but PpFKBP12^W40D complemented the rapamycin-resistant phenotype of fkbp12Δ cells
